According to ChEMBL document CHEMBL1158883, “Flavanone glycosides from Miconia trailii” (J Nat Prod, 2003):

Biological target: Fatty acid synthase (Homo sapiens, UniProt P49327)
Assay: Inhibition of fatty acid synthase

Sequence of Fatty acid synthase (P49327 whole entry): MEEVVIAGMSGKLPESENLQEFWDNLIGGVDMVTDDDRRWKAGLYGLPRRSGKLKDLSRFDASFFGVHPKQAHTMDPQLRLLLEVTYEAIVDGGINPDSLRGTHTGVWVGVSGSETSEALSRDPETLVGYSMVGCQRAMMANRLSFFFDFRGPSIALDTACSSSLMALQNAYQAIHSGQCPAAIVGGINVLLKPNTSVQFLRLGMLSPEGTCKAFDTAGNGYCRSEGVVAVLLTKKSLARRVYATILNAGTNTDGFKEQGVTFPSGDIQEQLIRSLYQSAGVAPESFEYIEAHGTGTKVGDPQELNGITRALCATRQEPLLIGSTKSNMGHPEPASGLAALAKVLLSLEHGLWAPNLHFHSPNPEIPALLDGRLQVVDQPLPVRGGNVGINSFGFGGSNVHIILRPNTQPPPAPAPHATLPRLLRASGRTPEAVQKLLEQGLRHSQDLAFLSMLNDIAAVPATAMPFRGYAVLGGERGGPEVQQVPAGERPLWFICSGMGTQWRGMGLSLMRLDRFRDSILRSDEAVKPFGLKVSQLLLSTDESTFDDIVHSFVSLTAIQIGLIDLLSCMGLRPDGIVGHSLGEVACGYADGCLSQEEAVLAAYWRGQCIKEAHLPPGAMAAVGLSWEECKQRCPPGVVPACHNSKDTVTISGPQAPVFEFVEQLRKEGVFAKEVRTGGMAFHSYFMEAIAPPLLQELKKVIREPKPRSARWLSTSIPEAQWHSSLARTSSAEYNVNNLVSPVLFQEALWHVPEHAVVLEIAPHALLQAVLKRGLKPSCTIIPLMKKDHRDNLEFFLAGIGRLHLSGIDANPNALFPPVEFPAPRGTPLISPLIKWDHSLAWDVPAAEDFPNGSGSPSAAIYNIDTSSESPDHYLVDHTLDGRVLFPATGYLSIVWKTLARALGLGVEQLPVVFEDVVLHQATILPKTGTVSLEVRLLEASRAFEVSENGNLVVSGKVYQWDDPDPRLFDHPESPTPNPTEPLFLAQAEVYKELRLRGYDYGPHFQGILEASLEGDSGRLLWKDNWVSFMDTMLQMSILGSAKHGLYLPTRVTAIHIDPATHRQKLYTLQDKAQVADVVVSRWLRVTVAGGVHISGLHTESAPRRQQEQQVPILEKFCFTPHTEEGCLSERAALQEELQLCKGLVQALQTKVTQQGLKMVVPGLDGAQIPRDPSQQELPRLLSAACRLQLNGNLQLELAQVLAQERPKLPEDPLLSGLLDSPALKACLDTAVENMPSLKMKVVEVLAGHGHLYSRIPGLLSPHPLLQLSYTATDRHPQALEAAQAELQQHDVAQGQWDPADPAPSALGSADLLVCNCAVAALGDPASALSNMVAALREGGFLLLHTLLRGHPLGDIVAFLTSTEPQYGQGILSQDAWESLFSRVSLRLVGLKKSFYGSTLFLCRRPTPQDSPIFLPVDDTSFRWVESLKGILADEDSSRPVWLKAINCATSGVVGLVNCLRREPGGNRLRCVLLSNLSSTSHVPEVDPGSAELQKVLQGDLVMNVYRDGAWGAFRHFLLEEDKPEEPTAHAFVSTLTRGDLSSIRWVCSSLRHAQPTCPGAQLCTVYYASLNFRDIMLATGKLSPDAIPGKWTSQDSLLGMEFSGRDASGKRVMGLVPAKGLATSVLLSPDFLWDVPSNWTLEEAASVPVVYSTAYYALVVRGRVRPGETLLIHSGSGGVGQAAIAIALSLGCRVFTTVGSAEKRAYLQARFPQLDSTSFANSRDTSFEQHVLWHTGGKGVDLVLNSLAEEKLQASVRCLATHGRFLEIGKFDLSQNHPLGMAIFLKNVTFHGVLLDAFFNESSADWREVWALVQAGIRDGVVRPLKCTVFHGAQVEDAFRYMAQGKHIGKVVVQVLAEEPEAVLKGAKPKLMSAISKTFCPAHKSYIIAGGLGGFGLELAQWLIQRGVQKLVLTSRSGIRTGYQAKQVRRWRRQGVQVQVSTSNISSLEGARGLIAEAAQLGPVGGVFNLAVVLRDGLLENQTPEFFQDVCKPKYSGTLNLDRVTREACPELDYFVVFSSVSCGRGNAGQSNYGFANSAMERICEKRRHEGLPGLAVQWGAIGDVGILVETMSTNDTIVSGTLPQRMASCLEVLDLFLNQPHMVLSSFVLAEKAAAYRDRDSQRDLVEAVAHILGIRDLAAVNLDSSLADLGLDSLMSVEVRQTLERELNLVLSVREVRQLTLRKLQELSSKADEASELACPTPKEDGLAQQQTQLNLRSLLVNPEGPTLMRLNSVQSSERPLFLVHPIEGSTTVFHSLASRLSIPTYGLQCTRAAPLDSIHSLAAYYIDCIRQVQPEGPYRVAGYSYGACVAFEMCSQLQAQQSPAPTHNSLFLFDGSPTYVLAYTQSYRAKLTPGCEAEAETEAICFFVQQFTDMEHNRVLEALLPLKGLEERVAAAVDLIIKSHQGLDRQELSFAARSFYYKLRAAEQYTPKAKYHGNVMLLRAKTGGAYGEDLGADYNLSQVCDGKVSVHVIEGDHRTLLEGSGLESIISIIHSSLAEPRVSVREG

SMILES	IC50 [µM]
C/C=C/C/C=C/CCC(=O)[C@H]1O[C@H]1C(N)=O [CERULENIN]	0.851
COc1ccc([C@@H]2CC(=O)c3c(O)c(C)c(O[C@@H]4O[C@H](CO[C@@H]5OC[C@H](O)[C@H](O)[C@H]5O)[C@@H](O)[C@H](O)[C@H]4O)c(C)c3O2)cc1 [MICONIOSIDE A]	> 82.2
